Assay results taken from the NIST ThermoML archive (doi:10.1021/je7006549).

Test: mn = molality of the nth substance listed, in mol/kg
Conditions: 101 kPa, Liquid

CC1=CC(=O)c2ccccc2C1=O [2-methyl-1,4-naphthalenedione] + Cc1ccccc1C
Conditions | mass density [kg/m3] | viscosity [mPa·s]
303.15 K, m1 = 0.0436 | 873.9 | 0.7432
303.15 K, m1 = 0.0884 | 875.8 | 0.7496
303.15 K, m1 = 0.1326 | 877.7 | 0.7581
303.15 K, m1 = 0.1767 | 879.6 | 0.7658
303.15 K, m1 = 0.2215 | 881.6 | 0.7765
303.15 K, m1 = 0.2656 | 883.5 | 0.7833
308.15 K, m1 = 0.0436 | 869.5 | 0.6988
308.15 K, m1 = 0.0884 | 871.4 | 0.7021
308.15 K, m1 = 0.1326 | 873.3 | 0.7081
308.15 K, m1 = 0.1767 | 875.2 | 0.7159
308.15 K, m1 = 0.2215 | 877.2 | 0.726
308.15 K, m1 = 0.2656 | 879.1 | 0.7348
313.15 K, m1 = 0.0436 | 865.8 | 0.6532
313.15 K, m1 = 0.0884 | 867.7 | 0.6592
313.15 K, m1 = 0.1326 | 869.6 | 0.6687
313.15 K, m1 = 0.1767 | 871.5 | 0.6742
313.15 K, m1 = 0.2215 | 873.5 | 0.681
313.15 K, m1 = 0.2656 | 875.4 | 0.6888
318.15 K, m1 = 0.0436 | 861.5 | 0.6212
318.15 K, m1 = 0.0884 | 863.4 | 0.6256
318.15 K, m1 = 0.1326 | 865.3 | 0.6319
318.15 K, m1 = 0.1767 | 867.2 | 0.6407
318.15 K, m1 = 0.2215 | 869.2 | 0.6473
318.15 K, m1 = 0.2656 | 871.1 | 0.6525
323.15 K, m1 = 0.0436 | 857.3 | 0.5792
323.15 K, m1 = 0.0884 | 859.2 | 0.5832
323.15 K, m1 = 0.1326 | 861.1 | 0.5905
323.15 K, m1 = 0.1767 | 863 | 0.5967
323.15 K, m1 = 0.2215 | 865 | 0.6011
323.15 K, m1 = 0.2656 | 866.9 | 0.6087
328.15 K, m1 = 0.0436 | 853 | 0.5498
328.15 K, m1 = 0.0884 | 854.9 | 0.5531
328.15 K, m1 = 0.1326 | 856.8 | 0.5601
328.15 K, m1 = 0.1767 | 858.7 | 0.5665
328.15 K, m1 = 0.2215 | 860.7 | 0.5706
328.15 K, m1 = 0.2656 | 862.6 | 0.5773
333.15 K, m1 = 0.0436 | 848.9 | 0.5177
333.15 K, m1 = 0.0884 | 850.8 | 0.5202
333.15 K, m1 = 0.1326 | 852.7 | 0.5277
333.15 K, m1 = 0.1767 | 854.6 | 0.5309
333.15 K, m1 = 0.2215 | 856.6 | 0.5358
333.15 K, m1 = 0.2656 | 858.5 | 0.5412

CC1=CC(=O)c2ccccc2C1=O [2-methyl-1,4-naphthalenedione] + c1ccccc1
Conditions | mass density [kg/m3] | viscosity [mPa·s]
303.15 K, m1 = 0.0334 | 869.4 | 0.5788
303.15 K, m1 = 0.0889 | 871.8 | 0.5842
303.15 K, m1 = 0.1332 | 873.7 | 0.588
303.15 K, m1 = 0.1778 | 875.6 | 0.5927
303.15 K, m1 = 0.2215 | 877.5 | 0.6006
303.15 K, m1 = 0.2681 | 879.5 | 0.6063
308.15 K, m1 = 0.0334 | 863.6 | 0.5408
308.15 K, m1 = 0.0889 | 866 | 0.5443
308.15 K, m1 = 0.1332 | 867.9 | 0.5484
308.15 K, m1 = 0.1778 | 869.8 | 0.5519
308.15 K, m1 = 0.2215 | 871.7 | 0.5598
308.15 K, m1 = 0.2681 | 873.7 | 0.5667
313.15 K, m1 = 0.0334 | 858.4 | 0.5057
313.15 K, m1 = 0.0889 | 860.8 | 0.5096
313.15 K, m1 = 0.1332 | 862.7 | 0.5142
313.15 K, m1 = 0.1778 | 864.6 | 0.5189
313.15 K, m1 = 0.2215 | 866.5 | 0.5242
313.15 K, m1 = 0.2681 | 868.5 | 0.5309
318.15 K, m1 = 0.0334 | 853 | 0.4782
318.15 K, m1 = 0.0889 | 855.4 | 0.4811
318.15 K, m1 = 0.1332 | 857.3 | 0.4847
318.15 K, m1 = 0.1778 | 859.2 | 0.4893
318.15 K, m1 = 0.2215 | 861.1 | 0.4945
318.15 K, m1 = 0.2681 | 863.1 | 0.5
323.15 K, m1 = 0.0334 | 847.7 | 0.4467
323.15 K, m1 = 0.0889 | 850.1 | 0.4489
323.15 K, m1 = 0.1332 | 852 | 0.4528
323.15 K, m1 = 0.1778 | 853.9 | 0.4566
323.15 K, m1 = 0.2215 | 855.8 | 0.461
323.15 K, m1 = 0.2681 | 857.8 | 0.4647
328.15 K, m1 = 0.0334 | 842.1 | 0.4206
328.15 K, m1 = 0.0889 | 844.5 | 0.4235
328.15 K, m1 = 0.1332 | 846.4 | 0.4266
328.15 K, m1 = 0.1778 | 848.3 | 0.4318
328.15 K, m1 = 0.2215 | 850.2 | 0.4347
328.15 K, m1 = 0.2681 | 852.2 | 0.4388
333.15 K, m1 = 0.0334 | 836.8 | 0.3946
333.15 K, m1 = 0.0889 | 839.2 | 0.3967
333.15 K, m1 = 0.1332 | 841.1 | 0.4003
333.15 K, m1 = 0.1778 | 843 | 0.4069
333.15 K, m1 = 0.2215 | 844.9 | 0.4084
333.15 K, m1 = 0.2681 | 846.9 | 0.4121

c1ccccc1 [benzene] + CC1=CC(=O)c2ccccc2C1=O
m2 = 0
Conditions | mass density [kg/m3] | viscosity [mPa·s]
303.15 K | 868 | 0.564
308.15 K | 862.2 | 0.5232
313.15 K | 857 | 0.5001
318.15 K | 851.6 | 0.4714
323.15 K | 846.3 | 0.4397
328.15 K | 840.7 | 0.4145
333.15 K | 835.4 | 0.3932
